Values after ≈ are worked out from the molar mass of the structure shown.
Columns and labels:
Assay type in all cases: cell-based
[1] = test system: red blood cells (5% RBC suspension); experiment: Test Example 2-2: in vitro hemolytic activity test (upper limit 200 μmol/L); settings: Test Example 2-2, hemolysis method 200 (upper concentration 200 μmol/L), 5% RBC suspension, 37° C., one hour, read-out: hemolysis IC50
Procedure: Nephrotoxic potentials of the compounds of the present invention whose X is —N(R^F)—CO—X^1 and X^1 is the group represented by formula (III) and T is —N(R^a5)— were investigated by in vitro hemolytic activity test under the condition that the upper limit was 200 μmol/L as the required concentration to 50% of hemolysis (IC50).
Defibrinated sterile blood was centrifuged at 700×g for 3 minutes and, and the supernatant was removed for 100% of red blood cells. After the cleaning with physiological saline, the washed blood cells was suspended in the medium (Earle's balanced salt sodium, bicarbonate, 0.1 g/L L-glutamine without phenol red), and was diluted by 5% (5% RBC suspension).
The washed blood was diluted by 5% in water for injection (solution of complete hemolysis), and was used as the indication of optical density for complete hemolysis.
The compounds of the present invention solution in DMSO (several and doubling dilutions starting from 10 mmol/L), DMSO as the negative control, and Amphotericin B as the positive control were used, and each 5 μL of these was added in to a well of V-form 96 well type microplate. Finally, the maximum concentration of the compounds of the present invention solution in DMSO was 200 μmol/L by adding 245 μL of the medium or 5% RBC suspension into the well.
Two hundred fifty μL of the solution of complete hemolysis was added into another well and the microplate was incubated at 37° C. in 5% of CO2 concentration for an hour.
After the incubation, each 100 μL of supernatants in wells was collected by centrifugation of the microplate at 300×g for 5 minutes and was located on a well of flat-form 96 well type microplate. An absorbance of each supernatant was measured at wavelength of 540 nm.
Percent hemolysis was calculated by using the followed equation. The required concentration to 50% of hemolysis (IC50) was calculated based on the percent hemolysis. […] Hemolysis (%)=(CR−VM)×100÷(VL−VR) Where:
CR: Absorbance of 5% RBC suspension incubated with the compounds of the present invention solution in DMSO
VM: Absorbance of medium incubated with the compounds of the present invention solution in DMSO
VL: Absorbance of solution of complete hemolysis
VR: Absorbance of 5% RBC suspension incubated with DMSO
The “>200” in the table means above IC50 value exceeded the upper concentration 200 μmol/L.

C. albicans ATCC90028 = experiment: Antifungal activity test, MIC by broth microdilution (CLSI M27-A3); settings: C. albicans ATCC90028; broth microdilution, 35° C., 24-48 hours, 100% inhibition
Summary of the method: (§1)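 CLSI broth microdilution in RPMI 1640 with 2% glucose, 0.165 mol/L MOPS, pH 7.0; two-fold DMSO dilutions. MIC = lowest concentration giving 100% inhibition versus growth control.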

A. flavus ATCC204304 = experiment: Antifungal activity test, MIC by broth microdilution (CLSI M38-A2); settings: A. flavus ATCC204304; broth microdilution, 35° C., 24-48 hours, 100% inhibition
Summary of the method: as §1

A. fumigatus ATCC204305 = experiment: as above; settings: A. fumigatus ATCC204305; broth microdilution, 35° C., 24-48 hours, 100% inhibition
Summary of the method: as §1

[2] = test system: red blood cells (5% RBC suspension); experiment: Test Example 2-1: in vitro hemolytic activity test (upper limit 50, 80, 100 or 200 μmol/L); settings: hemolysis method 50 (upper concentration 50 μmol/L); 5% RBC suspension, 37° C., one hour; read-out: hemolysis IC50
Summary of the method: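 A 5% suspension of washed red cells in Earle's medium was exposed to doubling dilutions of compound from DMSO, with maxima of 50, 80, 100 or 200 μmol/L final, for 1 h at 37 °C, 5% CO2. Supernatant absorbance at 540 nm was normalised to water-lysed cells. IC50 is the concentration giving 50% hemolysis; ">" values exceed the top concentration.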

Compound: C[C@@H]1[C@H](O)[C@@H](C)/C=C/C=C/C=C/C=C/C=C/C=C/C=C/[C@H](O[C@@H]2O[C@H](C)[C@@H](O)[C@H](N)[C@@H]2O)C[C@@H]2O[C@](O)(C[C@@H](O)C[C@@H](O)[C@H](O)CC[C@@H](O)C[C@@H](O)CC(=O)O[C@H]1C)C[C@H](O)[C@H]2NC(=O)NNC(=O)c1ccccn1 [I-44]
- IC50 [1]: > 200 µM

Compound: COC(=O)NNC(=O)N[C@H]1[C@@H]2C[C@@H](O[C@@H]3O[C@H](C)[C@@H](O)[C@H](N)[C@@H]3O)/C=C/C=C/C=C/C=C/C=C/C=C/C=C/[C@H](C)[C@@H](O)[C@@H](C)[C@H](C)OC(=O)C[C@H](O)C[C@H](O)CC[C@@H](O)[C@H](O)C[C@H](O)C[C@](O)(C[C@@H]1O)O2 [I-47]
- IC50 ([1]; Erythrocyte, 1 h): > 200 µM

Compound: C[C@@H]1[C@H](O)[C@@H](C)/C=C/C=C/C=C/C=C/C=C/C=C/C=C/[C@H](O[C@@H]2O[C@H](C)[C@@H](O)[C@H](N)[C@@H]2O)C[C@@H]2O[C@](O)(C[C@@H](O)C[C@@H](O)[C@H](O)CC[C@@H](O)C[C@@H](O)CC(=O)O[C@H]1C)C[C@H](O)[C@H]2NC(=O)NNCCN(C)C [I-78]
- IC50 ([1]; Erythrocyte, 1 h): > 200 µM

Compound: C[C@@H]1[C@H](O)[C@@H](C)/C=C/C=C/C=C/C=C/C=C/C=C/C=C/[C@H](O[C@@H]2O[C@H](C)[C@@H](O)[C@H](N)[C@@H]2O)C[C@@H]2O[C@](O)(C[C@@H](O)C[C@@H](O)[C@H](O)CC[C@@H](O)C[C@@H](O)CC(=O)O[C@H]1C)C[C@H](O)[C@H]2NC(=O)NNC(=O)CNC(=O)Nc1cccnc1 [I-123]
- IC50 [1]: > 200 µM

Compound: C[C@@H]1[C@H](O)[C@@H](C)/C=C/C=C/C=C/C=C/C=C/C=C/C=C/[C@H](O[C@@H]2O[C@H](C)[C@@H](O)[C@H](N)[C@@H]2O)C[C@@H]2O[C@](O)(C[C@@H](O)C[C@@H](O)[C@H](O)CC[C@@H](O)C[C@@H](O)CC(=O)O[C@H]1C)C[C@H](O)[C@H]2NC(=O)NNc1ncccc1C(F)(F)F [I-124]
- IC50 [1]: > 200 µM

Compound: C[C@@H]1[C@H](O)[C@@H](C)/C=C/C=C/C=C/C=C/C=C/C=C/C=C/[C@H](O[C@@H]2O[C@H](C)[C@@H](O)[C@H](N)[C@@H]2O)C[C@@H]2O[C@](O)(C[C@@H](O)C[C@@H](O)[C@H](O)CC[C@@H](O)C[C@@H](O)CC(=O)O[C@H]1C)C[C@H](O)[C@H]2NC(=O)NNc1ccc(C(F)(F)F)cn1 [I-125]
- IC50 [1]: > 200 µM

Compound: C[C@@H]1[C@H](O)[C@@H](C)/C=C/C=C/C=C/C=C/C=C/C=C/C=C/[C@H](O[C@@H]2O[C@H](C)[C@@H](O)[C@H](N)[C@@H]2O)C[C@@H]2O[C@](O)(C[C@@H](O)C[C@@H](O)[C@H](O)CC[C@@H](O)C[C@@H](O)CC(=O)O[C@H]1C)C[C@H](O)[C@H]2NC(=O)NNC(=O)c1ccc(N2CCOCC2)nc1 [I-194]
- IC50 [1]: > 200 µM

Compound: C[C@@H]1[C@H](O)[C@@H](C)/C=C/C=C/C=C/C=C/C=C/C=C/C=C/[C@H](O[C@@H]2O[C@H](C)[C@@H](O)[C@H](N)[C@@H]2O)C[C@@H]2O[C@](O)(C[C@@H](O)C[C@@H](O)[C@H](O)CC[C@@H](O)C[C@@H](O)CC(=O)O[C@H]1C)C[C@H](O)[C@H]2NC(=O)NNC(=O)c1ncccc1N [I-197]
- IC50 [1]: > 200 µM

Compound: C[C@@H]1[C@H](O)[C@@H](C)/C=C/C=C/C=C/C=C/C=C/C=C/C=C/[C@H](O[C@@H]2O[C@H](C)[C@@H](O)[C@H](N)[C@@H]2O)C[C@@H]2O[C@](O)(C[C@@H](O)C[C@@H](O)[C@H](O)CC[C@@H](O)C[C@@H](O)CC(=O)O[C@H]1C)C[C@H](O)[C@H]2NC(=O)NNC(=O)c1cccnc1N [I-198]
- IC50 [1]: > 200 µM

Compound: CCCC(=O)NNC(=O)N[C@H]1[C@@H]2C[C@@H](O[C@@H]3O[C@H](C)[C@@H](O)[C@H](N)[C@@H]3O)/C=C/C=C/C=C/C=C/C=C/C=C/C=C/[C@H](C)[C@@H](O)[C@@H](C)[C@H](C)OC(=O)C[C@H](O)C[C@H](O)CC[C@@H](O)[C@H](O)C[C@H](O)C[C@](O)(C[C@@H]1O)O2 [I-209]
- IC50 [1]: > 200 µM

Compound: C[C@@H]1[C@H](O)[C@@H](C)/C=C/C=C/C=C/C=C/C=C/C=C/C=C/[C@H](O[C@@H]2O[C@H](C)[C@@H](O)[C@H](N)[C@@H]2O)C[C@@H]2O[C@](O)(C[C@@H](O)C[C@@H](O)[C@H](O)CC[C@@H](O)C[C@@H](O)CC(=O)O[C@H]1C)C[C@H](O)[C@H]2NC(=O)NNS(=O)(=O)c1c[nH]cn1 [I-214]
- IC50 [1]: > 200 µM

Compound: CNC(=S)NNC(=O)N[C@H]1[C@@H]2C[C@@H](O[C@@H]3O[C@H](C)[C@@H](O)[C@H](N)[C@@H]3O)/C=C/C=C/C=C/C=C/C=C/C=C/C=C/[C@H](C)[C@@H](O)[C@@H](C)[C@H](C)OC(=O)C[C@H](O)C[C@H](O)CC[C@@H](O)[C@H](O)C[C@H](O)C[C@](O)(C[C@@H]1O)O2 [I-215]
- IC50 [1]: > 200 µM

Compound: C[C@@H]1[C@H](O)[C@@H](C)/C=C/C=C/C=C/C=C/C=C/C=C/C=C/[C@H](O[C@@H]2O[C@H](C)[C@@H](O)[C@H](N)[C@@H]2O)C[C@@H]2O[C@](O)(C[C@@H](O)C[C@@H](O)[C@H](O)CC[C@@H](O)C[C@@H](O)CC(=O)O[C@H]1C)C[C@H](O)[C@H]2NC(=O)NNC(=S)Nc1ccccc1 [I-216]
- IC50 [1]: > 200 µM

Compound: C[C@@H]1[C@H](O)[C@@H](C)/C=C/C=C/C=C/C=C/C=C/C=C/C=C/[C@H](O[C@@H]2O[C@H](C)[C@@H](O)[C@H](N)[C@@H]2O)C[C@@H]2O[C@](O)(C[C@@H](O)C[C@@H](O)[C@H](O)CC[C@@H](O)C[C@@H](O)CC(=O)O[C@H]1C)C[C@H](O)[C@H]2NC(=O)NNC(=S)NCCCN1CCOCC1 [I-217]
- IC50 [1]: > 200 µM

Compound: C[C@@H]1[C@H](O)[C@@H](C)/C=C/C=C/C=C/C=C/C=C/C=C/C=C/[C@H](O[C@@H]2O[C@H](C)[C@@H](O)[C@H](N)[C@@H]2O)C[C@@H]2O[C@](O)(C[C@@H](O)C[C@@H](O)[C@H](O)CC[C@@H](O)C[C@@H](O)CC(=O)O[C@H]1C)C[C@H](O)[C@H]2NC(=O)NNC(=O)NCC(N)=O [I-220]
- IC50 [1]: > 200 µM

Compound: C[C@@H]1[C@H](O)[C@@H](C)/C=C/C=C/C=C/C=C/C=C/C=C/C=C/[C@H](O[C@@H]2O[C@H](C)[C@@H](O)[C@H](N)[C@@H]2O)C[C@@H]2O[C@](O)(C[C@@H](O)C[C@@H](O)[C@H](O)CC[C@@H](O)C[C@@H](O)CC(=O)O[C@H]1C)C[C@H](O)[C@H]2NC(=O)NC[C@H](O)C(=O)O [I-259]
- MIC (C. albicans ATCC90028): 0.5 µg/mL (≈ 0.487 µM)
- MIC (A. flavus ATCC204304): 0.5 µg/mL (≈ 0.487 µM)
- MIC (A. fumigatus ATCC204305): 1 µg/mL (≈ 0.974 µM)
- IC50 [2]: > 50 µM

Compound: C[C@@H]1[C@H](O)[C@@H](C)/C=C/C=C/C=C/C=C/C=C/C=C/C=C/[C@H](O[C@@H]2O[C@H](C)[C@@H](O)[C@H](N)[C@@H]2O)C[C@@H]2O[C@](O)(C[C@@H](O)C[C@@H](O)[C@H](O)CC[C@@H](O)C[C@@H](O)CC(=O)O[C@H]1C)C[C@H](O)[C@H]2NC(=O)N1CCC1C(=O)O (stereo partly drawn) [I-284]
- MIC (C. albicans ATCC90028): 0.5 µg/mL (≈ 0.489 µM)
- MIC (A. flavus ATCC204304): 0.5 µg/mL (≈ 0.489 µM)
- MIC (A. fumigatus ATCC204305): 1 µg/mL (≈ 0.978 µM)
- IC50 [2]: > 50 µM

Compound: C[C@@H]1[C@H](O)[C@@H](C)/C=C/C=C/C=C/C=C/C=C/C=C/C=C/[C@H](O[C@@H]2O[C@H](C)[C@@H](O)[C@H](N)[C@@H]2O)C[C@@H]2O[C@](O)(C[C@@H](O)C[C@@H](O)[C@H](O)CC[C@@H](O)C[C@@H](O)CC(=O)O[C@H]1C)C[C@H](O)[C@H]2NC(=O)NC[C@@H](O)C(=O)O [I-311]
- MIC (C. albicans ATCC90028): 0.5 µg/mL (≈ 0.487 µM)
- MIC (A. flavus ATCC204304): 0.5 µg/mL (≈ 0.487 µM)
- MIC (A. fumigatus ATCC204305): 0.5 µg/mL (≈ 0.487 µM)
- IC50 [2]: > 50 µM
